According to paper PMC9124820, “In vitro evaluation of fenfluramine and norfenfluramine as victims of drug interactions” (Pharmacology Research & Perspectives, 2022):

Experiments:
Type in all cases: in vitro ADME
[1] = Metabolic stability and metabolite identity, rat liver S9 fractions; conditions: pH 7.4; 1 µM FFA, rat liver S9 fractions 2 mg protein/mL
Experimental: (§1) LC‐MS/MS analyses to assess metabolic stability and identify the transporter substrate were performed using an API 4000 QTRAP mass spectrometer (SCIEX, Framingham, MA) with electrospray ionization in positive mode. Chromatography was performed using an Atlantis dC18 analytical column (100 × 2.1 mm, 5 µm; Waters Corporation, Milford, MA). Mobile phases were 0.2% v/v formic acid in water and 0.2% v/v formic acid in acetonitrile. For metabolic stability experiments, FFA and metabolites were eluted at a flow rate of 0.6 mL/min, with a linear gradient of 20%−80% acetonitrile from 0.30−2.0 min. […] The mass transitions monitored were 232.0 > 159.0 for FFA and 348.0 > 330.0 for 1ʹ‐OH‐midazolam‐d4 internal standard. […]
(§2) FFA (1 or 10 µM) was incubated with liver and intestinal S9 fractions (2 mg protein/mL) at 37 ± 1°C in 0.2‐mL incubation mixtures containing potassium phosphate buffer (50 mM, pH 7.4), magnesium chloride (MgCl2) (3 mM), and EDTA (1 mM, pH 7.4), in the presence or absence of a three‐component cofactor mixture (NADPH‐generating system, uridine diphosphate glucuronic acid (UDPGA) [8 mM], and 3’‐phosphoadenosine 5’‐phosphosulfate [0.5 mM]). […] Supernatant fractions were analyzed by LC‐MS/MS.
(§3) To characterize substrate loss and metabolic stability, duplicate samples were analyzed by LC‐MS/MS to determine the change in substrate concentration over the incubation period. […]

[2] = Metabolic stability and metabolite identity, dog liver S9 fractions; conditions: pH 7.4; 1 µM FFA, dog liver S9 fractions 2 mg protein/mL
Experimental: as §1, §2, §3

[3] = Metabolic stability and metabolite identity, human intestinal S9 fractions; conditions: pH 7.4, 1 µM FFA, human intestine S9 fractions, outside assay detection limits
Experimental: as §1, §2, §3

rCYP2C19 = target: T1, rCYP2C19 (Homo sapiens, UniProt P33261); assay: Reaction phenotyping with rCYP2C19; conditions: rCYP2C19, 60 min
T1 construct: purchased Cypex, Ltd; host or cells: Escherichia coli
Experimental: For FFA and nFFA reaction phenotyping experiments, LC‐MS/MS experiments were performed using an API 4000 QTRAP or QTRAP 5500 mass spectrometer (SCIEX) with positive electrospray ionization. Chromatography was performed using an Atlantis dC18 analytical column (100 × 2.1 mm, 5 µm; Waters Corporation). Mobile phases were 0.2% v/v formic acid in water and 0.2% v/v formic acid in methanol. FFA and nFFA were eluted at a flow rate of 0.5 mL/min with a linear gradient of 40%−95% methanol from 0.20−2.1 min. The mass transitions monitored were 232.0>109.0 for FFA, 204.0>159.0 for nFFA, 348.0>330.0 for 1’‐hydroxymidazolam‐d4 internal standard (FFA reaction phenotyping), and 262.0>244.0 for hydroxybupropion‐d6 internal standard (nFFA reaction phenotyping). Analyst Instrument Control and Data Processing software (v. 1.6.1) was used for collecting and integrating data (SCIEX). Calibration curves ranging from 1.25 µM−0.01 µM were used to quantify nFFA. Relative quantitation was used to approximate the amount of FFA test material used.
Methods used to evaluate the role of CYP450s in the metabolism of FFA have been described.[22], [23], [24] […] Supernatant fractions were analyzed by LC‐MS/MS.

T1 sequence (P33261 whole entry): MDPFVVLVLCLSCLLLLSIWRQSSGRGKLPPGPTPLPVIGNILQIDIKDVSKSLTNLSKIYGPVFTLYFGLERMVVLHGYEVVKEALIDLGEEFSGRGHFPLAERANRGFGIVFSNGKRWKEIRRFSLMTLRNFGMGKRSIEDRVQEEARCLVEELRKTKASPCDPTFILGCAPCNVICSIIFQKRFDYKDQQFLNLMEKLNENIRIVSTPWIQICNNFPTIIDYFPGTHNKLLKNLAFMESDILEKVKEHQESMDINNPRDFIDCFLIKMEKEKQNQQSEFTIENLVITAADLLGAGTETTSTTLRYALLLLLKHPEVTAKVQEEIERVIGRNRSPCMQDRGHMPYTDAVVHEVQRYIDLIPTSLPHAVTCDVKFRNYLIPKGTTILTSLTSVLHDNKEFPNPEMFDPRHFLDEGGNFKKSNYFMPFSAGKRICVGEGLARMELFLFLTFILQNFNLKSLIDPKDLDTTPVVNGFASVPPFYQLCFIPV

With CCNC(C)Cc1cccc(C(F)(F)F)c1 (racemic) [FFA, (RS)‐ethyl (α‐methyl‐3‐trifluoromethylphenethyl)amine] as the molecule, how does the half-life at 1 µM [1] read?
The half-life at 1 µM was 35.4 min.

What about the microsomal CLint at 1 µM [1] of the same molecule?
The microsomal CLint at 1 µM was 9.8 µL/min/mg.

And the half-life at 1 µM [2]?
Its half-life at 1 µM is 30 min.

And the microsomal CLint at 1 µM [2]?
The microsomal CLint at 1 µM was 11.6 µL/min/mg.

And the half-life at 1 µM [3]?
Its half-life at 1 µM is over 120 min.

And the microsomal CLint at 1 µM [3]?
Its microsomal CLint at 1 µM is under 2.9 µL/min/mg.

And the “Disappearance of FFA” value (rCYP2C19; 1 μM FFA)?
The value was 49%.

What about the FFA loss (rCYP2C19; 10 μM FFA) of the same molecule?
Its FFA loss is 50%.
